In experiment [1] the test system is ancestral SARS-CoV-2. Put plainly: microbe, parasite or virus in culture. It is filed as cell-based. To be noted: Severe acute respiratory syndrome coronavirus 2, Vero, 24 h, read-out: IC50, inhibition of SARS-CoV-2 infection.
Experiment [2] concerns S protein / ACE2 interaction. To be noted: previous study; cited from earlier work.

pIC50: −log10 of the molar value.

A word on the pIC50: it is −log10 of the IC50, conventionally taken in molar units. Turning to `CCN(CC)CCCC(C)Nc1ccnc2cc(Cl)ccc12` (stereo not drawn) [chloroquine], the negative logarithm of the IC50 (pIC50) in experiment [1] was 5.25.

For the compound `CCC(CC)COC(=O)[C@H](C)N[P@](=O)(OC[C@H]1O[C@@](C#N)(c2ccc3c(N)ncnn23)[C@H](O)[C@@H]1O)Oc1ccccc1` [remdesivir], the pIC50 in experiment [1] is 5.33.

Consider `C[C@@H]1O[C@@H](O[C@H]2[C@H](OC(=O)[C@]34CCC(C)(C)C[C@H]3C3=CC[C@@H]5[C@@]6(C)C[C@H](O)[C@H](O[C@@H]7O[C@H](CO)[C@@H](O)[C@H](O)[C@H]7O)C(CO)(CO)[C@@H]6CC[C@@]5(C)[C@]3(C)C[C@H]4O)OC[C@H](O)[C@@H]2O)[C@H](O)[C@H](O)[C@H]1O[C@@H]1OC[C@@H](O)[C@H](O[C@@H]2OC[C@](O)(CO)[C@H]2O)[C@H]1O` [Platycodin D, platycodin D], for which the “inhibition of the interaction between the S protein and ACE2” value in experiment [2] is “does not inhibit the interaction between the S protein and ACE2”.
